# Measured values as given in patent US6875761B2 (Eisai Co., Ltd., priority 1997, dated 2005).
# Counter-ions that a name gives are not always drawn.
row,Compound,melting point
1,"CCN1CCN(c2nc(Cc3ccccc3)cc3ccccc23)CC1 (as salt: hydrochloride) [Example 419, 1-(4-ethylpiperazin-1-yl)-3-benzylisoquinoline]",118 to 119 °C
2,"CCN1CCN(c2nc(NC(=O)c3ccccc3)cc3ccccc23)CC1 (as salt: hydrochloride) [Example 421, 3-benzamide-1-(4-ethylpiperazin-1-yl)isoquinoline]",160 to 162 °C
3,"CCN1CCN(c2nc(COc3ccc(OC)cc3)cc3ccccc23)CC1 (as salt: hydrochloride) [Example 424, 1-(4-ethylpiperazin-1-yl)-3-(4-methoxyphenoxymethyl)isoquinoline Hydrochloride]",101 to 102 °C
4,"CCN1CCN(c2nc(-c3ccc(OCCO)cc3OC)cc3ccccc23)CC1 (as salt: hydrochloride) [Example 425, 1-(4-ethylpiperazin-1-yl)-3-[4-(2-hydroxyethoxy)-2-methoxyphenyl]isoquinoline]",140 to 142 °C
5,"CCN1CCN(c2nc(-c3ccc(OC4CCCCC4O)cc3)cc3ccccc23)CC1 (stereo not shown) (as salt: hydrochloride) [Example 426, 1-(4-ethylpiperazin-1-yl)-3-[4-(2-hydroxycyclohexyloxy)phenyl]isoquinoline Hydrochloride]",143 to 144 °C
6,"CCN1CCN(c2nc(-c3ccc(OC)cc3)nc3ccccc23)CC1 (as salt: hydrochloride) [Example 427, 4-(4-ethylpiperazin-1-yl)-2-(4-methoxyphenyl)quinazoline Dihydrochloride]",224.5 to 226 °C (dec.)
7,"CCN1CCN(c2nc(-c3ccc(OC)cc3)cc3ccncc23)CC1 (as salt: hydrochloride) [Example 428, 1-(4-ethylpiperazin-1-yl)-3-(4-methoxyphenyl)-7-azaisoquinoline]",222 °C (dec.)
8,"CCN1CCN(c2nc(-c3ccc(CCCO)nc3)cc3ccsc23)CC1 (as salt: hydrochloride) [Example 429, 7-(4-ethylpiperazin-1yl)-5-[2-(3-hydroxypropyl)pyridin-5-yl]thieno[2,3-c]pyridine hydrochloride]",204 to 205 °C
9,"CCN1CCN(c2nc(/C=C/c3cccc(OCCO)c3)cc3ccsc23)CC1 (as salt: hydrochloride) [Example 430, 7-(4-ethylpiperazin-1-yl)-5-[3-(2-hydroxyethoxy)styryl]thieno [2,3-c]pyridine hydrochloride]",98 to 99 °C
10,"CCN1CCN(c2nc(/C=C/c3ccc(OCCO)cc3)cc3ccsc23)CC1 (as salt: hydrochloride) [Example 431, 7-(4-ethylpiperazin-1-yl)-5-[4-(2-hydroxyethoxy)styryl]thieno[2,3-c]pyridine hydrochloride]",143 to 145 °C
11,"CCN1CCN(c2nc(-c3ccc(CCCO)cc3)cc3ccsc23)CC1 (as salt: hydrochloride) [Example 432, 7-(4-ethylpiperazin-1-yl)-5-[4-(3-hydroxypropyl)phenyl]thieno[2,3-c]pyridine hydrochloride]",112 to 113 °C
12,"CCN1CCN(c2nc(-c3ccc(CCCO)c(OC)c3)cc3ccsc23)CC1 (as salt: hydrochloride) [Example 433, 7-(4-ethylpiperazin-1-yl)-5-[4-(3-hydroxypropyl)-3-methoxyphenyl]thieno[2,3-c]-pyridine hydrochloride]",114 to 115 °C
13,"CCN1CCN(c2nc(-c3ccc(OCCCO)cc3)cc3ccsc23)CC1 (as salt: hydrochloride) [Example 434, 7-(4-ethylpiperazin-1-yl)-5-[4-(3-hydroxypropoxy)phenyl]thieno[2,3-c]pyridine dihydrochloride]",126 to 127 °C
14,"CCN1CCN(c2nc(-c3ccc(OC[C@@H](C)O)cc3)cc3ccsc23)CC1 (as salt: hydrochloride) [Example 435, 7-(4-ethylpiperazin-1-yl)-5-[4-(2-hydroxypropoxy)phenyl]thieno[2,3-c]pyridine dihydrochloride]",126 to 127 °C
15,"CCN1CCN(c2nc(-c3ccc(CC(C)O)cc3)cc3ccsc23)CC1 (stereo not shown) (as salt: hydrochloride) [Example 436, 7-(4-ethylpiperazin-1-yl)-5-[4-(2-hydroxypropyl)phenyl]thieno[2,3-c]pyridine dihydrochloride]",66 to 67 °C
16,"CCN1CCN(c2nc(-c3ccc(O[C@@H](C)CO)cc3)cc3ccsc23)CC1 (as salt: hydrochloride) [Example 438, 7-(4-ethylpiperazin-1-yl)-5-[4-(1-methyl-2-hydroxyethoxy)phenyl]thieno[2,3-c]pyridine dihydrochloride]",126 to 127 °C
17,"CCN1CCN(c2nc(-c3ccc(CCC(C)(C)O)cc3)cc3ccsc23)CC1 (as salt: hydrochloride) [Example 439, 7-(4-ethylpiperazin-1-yl)-5-[4-(3-hydroxy-3-methylbutyl)phenyl]thieno[2,3-c]pyridine dihydrochloride]",122 to 133.5 °C

row,Compound,melting point
1,"CCN1CCN(c2nc(-c3ccc(CCC(C)O)cc3)cc3ccsc23)CC1 (stereo not shown) (as salt: hydrochloride) [Example 440, 7-(4-ethylpiperazin-1-yl)-5-[4-(3-hydroxybutyl)phenyl]thieno[2,3-c]pyridine dihydrochloride]",110.5 to 112 °C
2,"CCN1CCN(c2nc(-c3ccc(CC(C)CO)cc3)cc3ccsc23)CC1 (stereo not shown) (as salt: hydrochloride) [Example 441, 7-(4-ethylpiperazin-1-yl)-5-[4-(3-hydroxy-2-methylpropyl)phenyl]thieno[2,3-c]pyridine dihydrochloride]",108 to 110 °C
3,"CCN1CCN(c2nc(-c3ccc(CC(C)(C)CO)cc3)cc3ccsc23)CC1 (as salt: hydrochloride) [Example 442, 7-(4-ethylpiperazin-1-yl)-5-[4-(3-hydroxy-2,2-dimethylpropyl)phenyl]thieno[2,3-c]pyridine dihydrochloride]",113 to 114 °C
4,"CCN1CCN(c2nc(-c3ccc(C(C)(C)CCO)cc3)cc3ccsc23)CC1 (as salt: hydrochloride) [Example 443, 7-(4-ethylpiperazin-1-yl)-5-[4-(3-hydroxy-1,1-dimethylpropyl)phenyl]thieno[2,3-c]pyridine dihydrochloride]",125.5 to 127.5 °C
5,"CCN1CCN(c2nc(-c3ccc(SC[C@@H](C)O)cc3)cc3ccsc23)CC1 (as salt: hydrochloride) [Example 444, 7-(4-ethylpiperazin-1-yl)-5-[4-(2-hydroxypropylthio)phenyl]thieno[2,3-c]pyridine dihydrochloride]",98.5 to 99.5 °C
6,"CCN1CCN(c2nc(-c3ccc(S(C)(=O)=O)cc3)cc3ccsc23)CC1 (as salt: hydrochloride) [Example 445, 7-(4-ethylpiperazin-1-yl)-5-(4-methanesulfonylphenyl)thieno)[2,3-c]pyridine dihydrochloride]",222.5 to 225 °C (dec.)
7,"CCCC(O)c1ccc(-c2cc3ccsc3c(N3CCN(CC)CC3)n2)cc1 (stereo not shown) (as salt: hydrochloride) [Example 446, 7-(4-ethylpiperazin-1-yl)-5-[4-(1-hydroxybutyl)phenyl]thieno[2,3-c]pyridine dihydrochloride]",112 to 114 °C
8,"CCNC(=O)c1ccc(-c2cc3ccsc3c(N3CCN(CC)CC3)n2)cc1 (as salt: hydrochloride) [Example 448, 7-(4-ethylpiperazin-1-yl)-5-[4-(N-ethylcarbamoyl)phenyl]thieno[2,3-c]pyridine dihydrochloride]",142 to 143 °C
9,"CCCNC(=O)c1ccc(-c2cc3ccsc3c(N3CCN(CC)CC3)n2)cc1 (as salt: hydrochloride) [Example 449, 7-(4-ethylpiperazin-1-yl)-5-[4-(N-propylcarbamoyl)phenyl]thieno[2,3-c]pyridine dihydrochloride]",136.5 to 138 °C
10,"CCN1CCN(c2nc(-c3ccc(S(=O)(=O)CC)cc3)cc3ccsc23)CC1 (as salt: hydrochloride) [Example 450, 7-(4-ethylpiperazin-1-yl)-5-(4-ethanesulfonylphenyl)thieno[2,3-c]pyridine dihydrochloride]",230 to 232 °C (dec.)
11,"CCCCNC(=O)c1ccc(-c2cc3ccsc3c(N3CCN(CC)CC3)n2)cc1 (as salt: hydrochloride) [Example 452, 7-(4-ethylpiperazin-1-yl)-5-[4-(N-butylcarbamoyl)phenyl]thieno[2,3-c]pyridine dihydrochloride]",127.5 to 128 °C
12,"CCN1CCN(c2nc(-c3ccc(C(=O)NC4CCCC4)cc3)cc3ccsc23)CC1 (as salt: hydrochloride) [Example 453, 7-(4-ethylpiperazin-1-yl)-5-[4-(N-cyclopentylcarbamoyl)phenyl]thieno[2,3-c]pyridine dihydrochloride]",148 to 149 °C
13,"CCN1CCN(c2nc(-c3ccc4c(c3)CC(C)(CO)O4)cc3ccsc23)CC1 (stereo not shown) (as salt: hydrochloride) [Example 456, dihydrochloride]",138 to 140 °C (dec.)
14,"CCN1CCN(c2nc(-c3ccc(C(O)C4CCCCC4)cc3)cc3ccsc23)CC1 (stereo not shown) (as salt: hydrochloride) [Example 457, 7-(4-Ethylpiperazin-1-yl)-5-[4-(cyclohexylhydroxymethyl)phenyl]thieno[2,3-c]pyridine dihydrochloride]",127.5 to 129 °C
15,"CCN1CCN(c2nc(-c3ccc(C(O)C4CCCC4)cc3)cc3ccsc23)CC1 (stereo not shown) (as salt: hydrochloride) [Example 458, 7-(4-ethylpiperazin-1-yl)-5-[4-(cyclopentylhydroxymethyl)phenyl]thieno[2,3-c]pyridine dihydrochloride]",128 to 129 °C
16,"CCN1CCN(c2nc(-c3ccc(OC)cc3)cc3ccsc23)CC1 (as salt: hydrochloride) [Example 459, 7-(4-ethylpiperazin-1-yl)-5-(4-methoxyphenyl)thieno[2,3-c]pyridine dihydrochloride]",113 to 115 °C
17,"CCN1CCN(c2nc(-c3ccc(OCCCO)cc3)cc3sccc23)CC1 (as salt: hydrochloride) [Example 462, 4-(4-ethylpiperazin-1-yl)-6-[4-(3-hydroxypropoxy)phenyl]thieno[3,2-c]pyridine dihydrochloride]",102 to 104 °C
